Data on 3 molecules can be found in patent US4434101A, “Inhibitors of SRS-synthesis” (Hoffmann-La Roche Inc., priority 1981, dated 1984).

For this experiment, the system named is SRS-A synthesis in rat peritoneal cells. Description: Inhibition of the In Vitro Synthesis of SRS-A in Rat Peritoneal Cells. Format: cell-based, rat (male Sprague-Dawley). The conditions noted are these: for inhibition at 10 µM: mean percent inhibition of ionophore A23187-induced SRS-A synthesis, 10 min preincubation at 37° C., p<0.001, SRS-A quantitated by guinea pig ileum bioassay, read-out: % Inhibition at 10μ M; for IC50: from plot of mean percent inhibition versus drug concentration, ionophore A23187-induced SRS-A synthesis. An excerpt:
Inhibition of the In Vitro Synthesis of SRS-A in Rat Peritoneal Cells
To study the effect of drugs on SRS-A synthesis in rat peritoneal cells, these cells (including mast cells, monocytes, eosinophils and neutrophils)were isolated from male Sprague-Dawley rats (Charles River Laboratories) weighing 180-220 g by the lavage procedure described by Herzig, D. G. and Dusner, E. J. Journal of Pharmacology and Experimental Therapeutics, 194, 457-460 (1975) with the exception that Hanks balanced salt solution used in these experiments was adjusted to pH 6.9 with 5% (V/V) of 0.1 M aqueous phosphate buffer and contained 50 mg/ml sodium heparin. After removal from the peritoneal cavity of rats, the cells were subsequently isolated by centrifugation at 400×gravity for 10 minutes at 4° C. and resuspended to a concentration of about 2,000,000 cells per ml in Hanks buffer.
Samples for evaluation were prepared by adding various concentrations of test drugs to 2 ml aliquots of the resuspended cells in Hanks buffer. The 2 ml samples used for control contained 2 ml aliquots of resuspended cells in Hanks buffer without drugs. All of the above samples (2 ml final volume) were preincubated at 37° C. for 10 minutes in the presence of varying concentrations of test drug prior to challenge with […] ionophore A23187. This ionophore is disclosed in Burka and Flower, Br. J. Pharmacology 65: 35-41 (1979). Antibiotic A23187 was used as a probe for the study of calcium and function in biological systems. After ionophore challenge, SRS-A was synthesized in the samples by the cells for 10 minutes (at 37° C.) after which this synthesis was terminated by placing the samples in a boiling water bath for 10 minutes followed by centrifugation at 2,000×g (10 minutes) at 4° C. to remove coagulated protein and cellular debris. The SRS-A present in the resulting supernatants was quantitated by a bioassay using a guinea pig ileum as described in Orange, and Austen, Adv. Immunol, 10: 105-144 (1969). For this bioassay, a 1.5 cm segment of ileum was removed from animals weighing 300 to 400 g and resuspended in an organ bath containing 10 ml of Tyrodes solution with 10^-6 M atropine sulfate and 10^-6 M pyrilamine maleate. The bath was maintained at 37° C. and aereated with a mixture of 95% O2 and 5% CO2. The concentration of SRS-A in the experimental samples was determined by a comparison of isotonic contraction responses elicited by the samples with those obtained with varying amounts of an SRS-A standard solution prepared from chopped guinea pig lung as disclosed in Hitchcock, M. J. Pharmacol. Exp. Ther. 207: 630-640 (1978) and quantitated by the procedures of Orange, R. R. and Austen, K. F. Adv. Immunol. 10: 105-144 (1969) against histamine (1 unit of SRS-A being that amount which gives a contractie response similar to that of […] of histamine). In the absence of drug, the ionophore A23187-induced SRS-A synthesis varied between 40 to 50 units of SRS-A per 10^6 cells. In the presence of increasing concentrations of test drug, there was a concentration-related decrease in SRS-A synthesis.
The mean percent inhibition [formula] at each concentration of the various test drugs was calculated. The concentration of test drug which inhibits the synthesis of SRS-A by 50% (IC50) was determined for each test drug from a plot of the mean percent inhibition versus drug concentration. The difference of units of SRS-A in the test sample used in the fraction given above was obtained by subtracting the units of SRS-A in the control from the actual measurement of the units of SRS-A in the sample.

The term inhibition denotes the share of the control response that was lost under treatment. Broadly, the IC50 is the concentration that gives 50% inhibition. A high value points to weaker potency. Consider `CCCCCCCCCCC/C=C\C(C)(C)/C=C\CCCC(=O)O` [(Z,Z)-7,7-dimethyl-5,8-eicosadienoic acid], for which the inhibition at 10 µM amounted to 100% and the IC50 is under 10 µM.

Turning to `CCCCCCCC/C=C\C/C=C\C(C)(C)/C=C\CCCC(=O)O` [(all Z)-7,7-dimethyl-5,8,11-eicosatrienoic acid], the inhibition at 10 µM amounted to 100% and the IC50 was under 10 µM.

For `CCCCC/C=C\C/C=C\C/C=C\C(C)(C)/C=C\CCCC(=O)O` [(all-Z)-7,7-dimethyleicosa-5,8,11,14-tetraenoic acid], the inhibition at 10 µM came to 100% and the IC50 lay in the range of 1 to 3 µM.
